In ChEMBL document CHEMBL5131491, “N6-modification of 7-Deazapurine nucleoside analogues as Anti-Trypanosoma cruzi and anti-Leishmania agents: Structure-activity relationship exploration and In vivo evaluation” (Eur J Med Chem, 2022):
Active and inactive are the calls of the source. The rule behind the calls is not given here.

What was measured:
[1] = tested on: Trypanosoma cruzi; assay: Antitrypanosomal activity against Trypanosoma cruzi Y strain infected in acute CD Swiss Webster mouse model assessed as reduction in parasitemia at 25 mg/kg, po qd for 5 consecutive days by light microscopy relative to control; assay type: functional; design: scale not given: the % may be the effect or the level left; conditions: time 5 day
[2] = Cytotoxicity against human MRC5 fibroblast cells assessed as reduction in cell viability measured after 3 days by fluorometry; assay type: toxicity, cell-based; conditions: time 3 day
[3] = tested on: Trypanosoma cruzi; assay: Antitrypanosomal activity against Trypanosoma cruzi Y strain infected in acute CD Swiss Webster mouse model assessed as reduction in parasitemia at 12.5 mg/kg, po qd for 5 consecutive days by light microscopy relative to control; assay type: functional; design: scale not given: the % may be the effect or the level left; conditions: time 5 day
[4] = tested on: Trypanosoma cruzi; assay: Antitrypanosomal activity against intracellular Trypanosoma cruzi Tulahuen amastigotes expressing CL2 beta-galactosidase in human MRC5 cells assessed as parasite growth inhibition using chlorophenol red beta-D-galactopyranoside as substrate treated for 7 days by spectrophotometry; assay type: functional, organism-based; conditions: MRC5, 168 h
[5] = Selectivity index, ratio of CC50 for human MRC-5 cells to EC50 for antitrypanosomal activity against intracellular Trypanosoma cruzi Tulahuen amastigotes expressing CL2 beta-galactosidase in human MRC5 cells; assay type: toxicity, cell-based; conditions: read-out: Selectivity Index
[6] = tested on: Leishmania infantum; assay: Antileishmanial activity against intracellular Leishmania infantum MHOM/MA(BE)/67 amastigotes infected in Swiss mouse peritoneal macrophages assessed as parasite growth inhibition incubated for 5 days by giemsa staining based microscopic analysis; assay type: functional, organism-based; conditions: MHOM/MA(BE)/67, Macrophage, 120 h
[7] = Cytotoxicity against Swiss mouse peritoneal macrophages assessed as reduction in cell viability measured after 5 days by microscopic analysis; assay type: toxicity, cell-based, Macrophage; conditions: time 5 day
[8] = Selectivity index, ratio of CC50 for Swiss mouse peritoneal macrophages to EC50 for antileishmanial activity against intracellular Leishmania infantum MHOM/MA(BE)/67 amastigotes infected in Swiss mouse peritoneal macrophages; assay type: toxicity, cell-based; conditions: read-out: Selectivity Index
[9] = Metabolic stability in mouse liver microsomes S9 fraction assessed as parent compound remaining at 5 uM incubated for 15 mins in presence of NADPH by liquid chromatography (reference value: 100 %); assay type: ADME, Microsome S9 fraction; conditions: read-out: Stability
[10] = Metabolic stability in mouse liver microsomes S9 fraction assessed as parent compound remaining at 5 uM incubated for 30 mins in presence of NADPH by liquid chromatography (reference value: 100 %); assay type: ADME, Microsome S9 fraction; conditions: read-out: Stability
[11] = Metabolic stability in mouse liver microsomes S9 fraction assessed as parent compound remaining at 5 uM incubated for 60 mins in presence of NADPH by liquid chromatography (reference value: 100 %); assay type: ADME, Microsome S9 fraction; conditions: read-out: Stability
[12] = Metabolic stability in hamster liver microsomes S9 fraction assessed as parent compound remaining at 5 uM incubated for 15 min in presence of NADPH by liquid chromatography (reference value: 100 %); assay type: ADME, Cricetulus griseus, Microsome S9 fraction; conditions: chinese hamster, read-out: Stability
[13] = Metabolic stability in hamster liver microsomes S9 fraction assessed as parent compound remaining at 5 uM incubated for 30 min in presence of NADPH by liquid chromatography (reference value: 100 %); assay type: ADME, Cricetulus griseus, Microsome S9 fraction; conditions: chinese hamster, read-out: Stability
[14] = Metabolic stability in hamster liver microsomes S9 fraction assessed as parent compound remaining at 5 uM incubated for 60 min in presence of NADPH by liquid chromatography (reference value: 100 %); assay type: ADME, Cricetulus griseus, Microsome S9 fraction; conditions: chinese hamster, read-out: Stability
[15] = Metabolic stability in human liver microsomes S9 fraction assessed as parent compound remaining at 5 uM incubated for 15 min in presence of NADPH by liquid chromatography (reference value: 100 %); assay type: ADME, Microsome S9 fraction; conditions: read-out: Stability
[16] = Metabolic stability in human liver microsomes S9 fraction assessed as parent compound remaining at 5 uM incubated for 30 min in presence of NADPH by liquid chromatography (reference value: 100 %); assay type: ADME, Microsome S9 fraction; conditions: read-out: Stability
[17] = Metabolic stability in human liver microsomes S9 fraction assessed as parent compound remaining at 5 uM incubated for 60 min in presence of NADPH by liquid chromatography (reference value: 100 %); assay type: ADME, Microsome S9 fraction; conditions: read-out: Stability
[18] = Metabolic stability in mouse liver microsomes S9 fraction assessed as parent compound remaining at 5 uM incubated for 15 min in presence of UGT by liquid chromatography (reference value: 100 %); assay type: ADME, Microsome S9 fraction; conditions: read-out: Stability
[19] = Metabolic stability in mouse liver microsomes S9 fraction assessed as parent compound remaining at 5 uM incubated for 30 min in presence of UGT by liquid chromatography (reference value: 100 %); assay type: ADME, Microsome S9 fraction; conditions: read-out: Stability
[20] = Metabolic stability in mouse liver microsomes S9 fraction assessed as parent compound remaining at 5 uM incubated for 60 min in presence of UGT by liquid chromatography (reference value: 100 %); assay type: ADME, Microsome S9 fraction; conditions: read-out: Stability
[21] = Metabolic stability in hamster liver microsomes S9 fraction assessed as parent compound remaining at 5 uM incubated for 15 min in presence of UGT by liquid chromatography (reference value: 100 %); assay type: ADME, Cricetulus griseus, Microsome S9 fraction; conditions: chinese hamster, read-out: Stability
[22] = Metabolic stability in hamster liver microsomes S9 fraction assessed as parent compound remaining at 5 uM incubated for 30 min in presence of UGT by liquid chromatography (reference value: 100 %); assay type: ADME, Cricetulus griseus, Microsome S9 fraction; conditions: chinese hamster, read-out: Stability
[23] = Metabolic stability in hamster liver microsomes S9 fraction assessed as parent compound remaining at 5 uM incubated for 60 min in presence of UGT by liquid chromatography (reference value: 100 %); assay type: ADME, Cricetulus griseus, Microsome S9 fraction; conditions: chinese hamster, 1 h
[24] = Metabolic stability in human liver microsomes S9 fraction assessed as parent compound remaining at 5 uM incubated for 15 min in presence of UGT by liquid chromatography (reference value: 100 %); assay type: ADME, Microsome S9 fraction; conditions: read-out: Stability
[25] = Metabolic stability in human liver microsomes S9 fraction assessed as parent compound remaining at 5 uM incubated for 30 min in presence of UGT by liquid chromatography (reference value: 100 %); assay type: ADME, Microsome S9 fraction; conditions: read-out: Stability
[26] = Metabolic stability in human liver microsomes S9 fraction assessed as parent compound remaining at 5 uM incubated for 60 min in presence of UGT by liquid chromatography (reference value: 100 %); assay type: ADME, Microsome S9 fraction; conditions: read-out: Stability
[27] = tested on: Trypanosoma cruzi; assay: Antitrypanosomal activity against Trypanosoma cruzi Y strain infected in acute CD Swiss Webster mouse model assessed as reduction in parasitemia at 50 mg/kg, po qd for 5 consecutive days by light microscopy relative to control; assay type: functional; design: scale not given: the % may be the effect or the level left; conditions: time 5 day
[28] = Toxicity in acute CD Swiss Webster mouse model infected with Trypanosoma cruzi Y strain assessed as animal survival at 50 mg/kg, po qd for 5 consecutive days measured daily for upto 30 days post-treatment; assay type: organism-based; conditions: in vivo, 720 h, time < 30 day
[29] = tested on: Trypanosoma cruzi; assay: Antitrypanosomal activity against bloodstream extracellular Trypanosoma cruzi Y strain trypomastigotes assessed as reduction in parasite growth incubated for 96 hrs by light microscope; assay type: functional, organism-based
[30] = tested on: Leishmania infantum; assay: Antileishmanial activity against extracellular Leishmania infantum LEM3323-C14 promastigotes assessed as reduction in parasite growth incubated for 96 hrs by light microscope; assay type: functional, organism-based; conditions: LEM3323-C14, 96 h
[31] = tested on: Leishmania infantum; assay: Antileishmanial activity against extracellular Leishmania infantum […] MIL5C13 promastigotes assessed as reduction in parasite growth incubated for 96 hrs by light microscopy; assay type: functional, organism-based
[32] = tested on: Leishmania infantum; assay: Antileishmanial activity against extracellular Leishmania infantum […] PMM promastigotes assessed as reduction in parasite growth incubated for 96 hrs by light microscopy; assay type: functional, organism-based
[33] = tested on: Trypanosoma cruzi; assay: Antitrypanosomal activity against Trypanosoma cruzi Y strain infected in acute CD Swiss Webster mouse model assessed as reduction in parasitemia at 12.5 to 25 mg/kg, po qd administered for 5 consecutive days by light microscopy; assay type: functional, organism-based; conditions: dose 12.5-25 mg/kg, time 5.0 day
[34] = Acute toxicity in acute CD Swiss Webster mouse model infected with Trypanosoma cruzi Y strain assessed as survival rate at 12.5 mg/kg, po administered for 5 consecutive days measured after 55 days post treatment (reference value: 100 %); assay type: organism-based; conditions: in vivo, time 55 day
[35] = Acute toxicity in acute CD Swiss Webster mouse model infected with Trypanosoma cruzi Y strain assessed as survival rate at 25 mg/kg, po administered for 5 consecutive days measured after 55 days post treatment (reference value: 100 %); assay type: organism-based; conditions: in vivo, time 55 day
[36] = Acute toxicity in acute CD Swiss Webster mouse model infected with Trypanosoma cruzi Y strain assessed as maximum tolerated dose administered orally once daily for 5 consecutive days; conditions: in vivo, route po, time 5 day
[37] = Acute toxicity in acute CD Swiss Webster mouse model infected with Trypanosoma cruzi Y strain assessed as weight loss at 12.5 to 50 mg/kg, po qd administered for 5 consecutive days measured once a week; assay type: organism-based; conditions: in vivo, 120 h, dose 12.5-50 mg/kg, time 5 day
[38] = Toxicity in early curative hamster model assessed as severe toxicity at 50 mg/kg, po qd for 4 days measured on day 5; assay type: organism-based, Cricetulus griseus; conditions: chinese hamster, in vivo, 120 h, time 5 day
[39] = Toxicity in early curative hamster model assessed as weight loss at 50 mg/kg, po qd for 4 days measured on day 2; assay type: organism-based, Cricetulus griseus; conditions: chinese hamster, in vivo, 96 h, time 4 day
[40] = Toxicity in early curative hamster model assessed as clinical symptoms of toxicity at 50 mg/kg, po qd for 4 days; assay type: organism-based, Cricetulus griseus; conditions: chinese hamster, in vivo, 96 h, time 4 day

CNc1ncnc2c1ccn2[C@@H]1O[C@H](CO)[C@@H](O)[C@H]1O
Activity [1]: 89% | CC50 at 72 h [2]: > 64 µM | Activity [3]: 75% | EC50 [4]: 0.45 µM | selectivity ratio [5]: > 142 | EC50 [6]: 0.49 µM | CC50 at 120 h [7]: > 64 µM | selectivity ratio [8]: > 131 | remaining at 0.25 h, 5 µM [9]: 96% | remaining at 0.5 h, 5 µM [10]: 96% | remaining at 1 h, 5 µM [11]: 107% | remaining at 0.25 h, 5 µM [12]: 97% | remaining at 0.5 h, 5 µM [13]: 93% | remaining at 1 h, 5 µM [14]: 103% | remaining at 0.25 h, 5 µM [15]: 108% | remaining at 0.5 h, 5 µM [16]: 95% | remaining at 1 h, 5 µM [17]: 105% | remaining at 0.25 h, 5 µM [18]: 103% | remaining at 0.5 h, 5 µM [19]: 105% | remaining at 1 h, 5 µM [20]: 98% | remaining at 0.25 h, 5 µM [21]: 102% | remaining at 0.5 h, 5 µM [22]: 102% | Stability [23]: 116% | remaining at 0.25 h, 5 µM [24]: 99% | remaining at 0.5 h, 5 µM [25]: 104% | remaining at 1 h, 5 µM [26]: 104% | Activity [27]: 96% | Survival [28]: Toxic | EC50 [29]: > 24 µM | EC50 [30]: 8 µM | EC50 [31]: 2.38 µM | EC50 [32]: 2 µM | Activity [33]: Active | survival at 1320 h [34]: 83.3% | survival at 1320 h [35]: 66.7% | MTD at 120 h [36]: 12.5 mg/kg/day | Activity [37]: Toxic | Activity [38]: Toxic | Activity [39]: Toxic | Activity [40]: Toxic
